Laboratory results reported in patent publication US8063089B2, “Inhibitors of nucleophosmin (NPM) and methods for inducing apoptosis” (Arizona Board of Regents on Behalf of the University of …, priority 2007, dated 2011).

Key:
14-3-3 dimer = 14-3-3 dimer formation control, native PAGE; assay type: cell-based, human; details: LNCaP and HCT116 cells, 5 and 6 μM, 24 hr
Experimental: (§1) To examine whether NSC348884 specifically interacts with NPM and disrupts its oligomer formation, LNCaP and HCT116 cells with wild type NPM (no translocations) were treated with varying concentrations of NSC348884 (0, 5, 6 μM) for 24 hr, lyzed under non-denaturing conditions and analyzed by native PAGE which is an excellent tool for detecting oligomers and aggregates since the protein retains its folded conformation. We utilized 14-3-3 which forms dimers as a control. […] The two bands shown in HCT116 represent different isoforms of 14-3-3 proteins. Taken together, NSC348884 is able to bind to NPM and interfere with oligomer formation of NPM specifically.
(§2) Immunoblotting. LNCaP or HCT116 cells were lysed in NP-40 lysis buffer containing 50 mM Tris-Cl (pH 7.4), 0.15 M NaCl, 0.5% NP-40, 1 mM DTT, 50 mM sodium fluoride and 2 μl/ml of a protease inhibitor cocktail (Sigma, St. Louis, Mo.). Protein concentrations were-determined using the Bio-Rad protein assay kit (Hercules, Calif.) and 50 μg of protein was resolved by electrophoresis on a 10% SDS-PAGE. […] The membrane was subjected to the indicated antibodies and the proteins were detected by the SuperSignal West Pico detection system (Pierce, Rockford, Ill.). […]

p53 [1] = assay: p53 immunocytochemistry; assay type: cell-based, human; details: LNCaP and A549, 5 μM, 6 h, versus vehicle
Excerpt: Mounting evidences indicate that NPM negatively regulates tumor suppressor p53 through interaction with p53 directly to prevent its phosphorylation on Ser15 (Maiguel et al., 2004) or through binding with p14ARF to impair the ARF-Hdm2 association and increase Hdm2/p53 complex formation (Gjerset, 2006). NPM knockdown by small interfering RNA enhances p53 phosphorylation and transcriptional activity. Therefore, inhibition of NPM by NSC348884 could affect p53 status. To address this, LNCaP cells were untreated and treated with different dosage of NSC348884 for 2 h to 24 h, and the changes in p53 protein and phosphorylation levels were determined by Western blot. Indeed, NSC348884 increased both p53 protein level and phosphorylation on Ser15 in a dose-dependent manner after 2 h of incubation (FIG. 5A).
Immunocytochemistry. LNCaP, A549 or HCT116 cells grown on cover slips were treated with DMSO or 5 μM of NSC348884 for 6 hr and then fixed in cold methanol:acetone (3:7) for 5 minutes. The cover slips were washed twice with cold PBS and blocked with blocking buffer (1% BSA, 0.01% saponin and 1% normal mouse serum in PBS) for 1 hr at room temperature. The cover slips were then immunostained using anti-p53 antibody at the dilution 1:100 in blocking buffer overnight at 4° C. […]

[2] = system: MCF7, PC-3, DU145 and Granta cells; assay: Annexin V staining and flow cytometry; assay type: cell-based, human; details: several different cancer cell lines, 24 h
Experimental: Furthermore, apoptosis induced by NSC348884 was confirmed by Annexin V staining and flow cytometry (FACS) analysis.
(§3) Apoptosis Assays. Drug treated LNCaP cells were examined for apoptotic morphology using a fluorescence staining technique as described previously (Qi and Martinez, 2003). Briefly, cells were exposed to DMSO or 1 to 5 μM of NSC348884 for 24 hr and were harvested by trypsinization. After staining with a mixed dye solution containing […] each of acridine orange and ethidium bromide the morphology of the cells were observed by fluorescence microscopy, and the number of apoptotic cells was quantified. Studies were performed in triplicate and mean+SD calculated. In all cases a minimum of 200 cells were counted for each sample. Using Annexin V staining to detect apoptosis, treated MCF-7, PC-3, DU145 and Granta (−519, −4, −22) cells were harvested by trypsinization and rinsed with cold PBS once. After centrifugation for 5 min, cancer cells were resuspended in 500 μl of 1 Annexin V binding buffer (BioVision, Annexin V-FITC Reagent Kit, Cat. #1001-1000) and then added 1 μl of Annexin V-FITC and 1 μl of Propidium Iodide (BioVision, Annexin VFITC Reagent Kit). After incubation for 5 min at room temperature in the dark, the samples were analyzed by flow cytometry.

NPM oligomer = target: T1, NPM oligomer (Homo sapiens, UniProt P06748); assay: NPM oligomer formation by native PAGE / immunoblotting; assay type: cell-based; details: LNCaP and HCT116 cells, 5 and 6 μM, 24 hr
T1 construct: endogenous in cells; host or cells: LNCaP and HCT116
T1 sequence (P06748 whole entry): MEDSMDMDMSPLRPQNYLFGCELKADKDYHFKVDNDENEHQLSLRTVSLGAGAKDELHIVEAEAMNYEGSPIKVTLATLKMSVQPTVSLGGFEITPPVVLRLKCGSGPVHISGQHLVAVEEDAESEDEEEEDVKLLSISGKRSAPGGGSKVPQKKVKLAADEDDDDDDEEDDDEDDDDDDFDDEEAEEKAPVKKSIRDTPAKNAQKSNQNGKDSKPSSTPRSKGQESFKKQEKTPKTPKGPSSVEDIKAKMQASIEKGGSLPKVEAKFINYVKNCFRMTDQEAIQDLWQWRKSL
Experimental: as §1, §2

LNCaP cells = assay: Apoptosis by morphology (acridine orange/ethidium bromide fluorescent staining); assay type: cell-based, human; details: 24 hr
Experimental: as §3

p53 [3] = assay: p53 / p21 Western blotting; assay type: cell-based, human
LNCaP prostate cell line = assay: MTT cell viability assay, LNCaP; assay type: cell-based; details: Homo sapiens, 96 h, 4 days
Experimental: NPM plays an essential role in cellular activities such as ribosome biogenesis, cell proliferation, apoptosis and centrosome duplication. Therefore, inhibition of NPM should affect cell growth. To determine the effect of NPM inhibitor NSC348884 on cancer cell proliferation, cell viability assays were conducted on LNCaP and Granta (human mantle cell lymphoma) cells (Granta-519, -4, -22) with varying concentrations of NSC348884 over 4 days. […] The difference in IC50 is attributed to the differential proliferative capacity of the two types of cancer cell lines. Since Rev peptide binds to NPM and potentates the doxorubicin-induced decrease of cellular viability and inhibition of tumor growth in nude mice (Chan et al., 2005), we evaluated if NSC348884 would be additive or synergistic with doxorubicin, a therapy commonly used in this disease. An IC50 of 0.01-0.02 μM for doxorubicin was established for all 3 Granta cell lines, while at 0.1 nM doxorubicin had no effect on cell viability
Cells and Reagents. […]
Cell Viability Assays. […] The media and MTT dye were aspirated, and 100 μL dimethyl sulfoxide (DMSO) was added to each well, absorbance was read at 540 nm on a plate reader (Wallac Vector, PerkinElmer). Data was expressed as the percent survival of control calculated from the absorbance, corrected for background.

[4] = system: HCT116 colon cancer cells; assay: SCID mouse HCT116 colon cancer xenograft; assay type: in vivo, SCID mice; details: for survival: i.p. for 4 weeks, NSC348884 1.5 mg/kg Mon/Wed/Fri, doxorubicin 20 ug/kg Mon
Experimental: SCID mice were inoculated with 10×10^6 HCT116 colon cancer cells in their flanks to form measurable tumors in the range 60-100 mm^3. Mice were pair matched with 12 mice per arm. NSC348884 was administered (Monday, Wednesday, Friday), Doxorubicin (Monday), combination or vehicle by intra-peritoneal injection each for 4 weeks. Measurements of tumor growth were performed twice a week and tumor volume estimated according to the formula: [(width)^2×length]/2. Mice were weighed before the beginning of the experiment and twice a week thereafter to check for signs of toxicity. Control mice (upper panel, first bar) were treated with vehicle (DMSO), NSC348884 at 1.5 mg/kg NSC348884 (upper panel, second bar), very low dose doxorubicin at 20 ug/kg (upper panel, third bar), and the combination of NSC348884/doxorubicin (upper panel, fourth bar).

[5] = system: distinct cancer cell lines; assay: Inhibition of cell proliferation, summary; assay type: cell-based; details: Homo sapiens
Experimental: Cell Viability Assays. LNCaP, Granta-4, Granta-22 and Granta-519 cell lines were seeded into 96-well tissue culture plates with 50,000 cells per well, cultured for 24 hours and exposed to NSC348884, doxorubicin or combination for four days. All studies were performed in triplicate and were repeated 3 different times. After incubation, 20 μL of 2 mg/m L 3-(4,5-dimethylthiazol-2-yl)-2,5-diphenyltetrazolium bromide (MTT) were added to each well and incubated an additional four hours. The media and MTT dye were aspirated, and 100 μL dimethyl sulfoxide (DMSO) was added to each well, absorbance was read at 540 nm on a plate reader (Wallac Vector, PerkinElmer). Data was expressed as the percent survival of control calculated from the absorbance, corrected for background.

LNCaP = assay: Apoptosis markers by immunoblotting (PARP cleavage, H2AX phosphorylation); assay type: cell-based, human; details: 4 and 5 μM
Experimental: Immunoblotting. LNCaP or HCT116 cells were lysed in NP-40 lysis buffer containing 50 mM Tris-Cl (pH 7.4), 0.15 M NaCl, 0.5% NP-40, 1 mM DTT, 50 mM sodium fluoride and 2 μl/ml of a protease inhibitor cocktail (Sigma, St. Louis, Mo.). Protein concentrations were-determined using the Bio-Rad protein assay kit (Hercules, Calif.) and 50 μg of protein was resolved by electrophoresis on a 10% SDS-PAGE. The proteins were then transferred onto a nitrocellulose membrane and nonspecific binds were blocked by incubating with 5% nonfat milk in TBST buffer (0.01 M Tris-Cl, pH 8.0, 0.15 M NaCl, 0.5% Tween-20) at room temperature for 1 hr. The membrane was subjected to the indicated antibodies and the proteins were detected by the SuperSignal West Pico detection system (Pierce, Rockford, Ill.). For native PAGE gel experiment, the samples were not denatured by heating and the electrophoresis was run in the absence of SDS.

[6] = system: Granta (-4, -22 and -519) mantle cell lymphoma cell lines; assay: MTT cell viability assay, Granta; assay type: cell-based, human; details: for IC50: Homo sapiens, 96 h, Granta-4, -22, -519, MTT
Experimental: Cells and Reagents. Human cancer cell lines used herein include prostate (LNCaP, PC3, DU145), colon (HCT116), lung (A549), breast (MCF7) purchased from American Type Culture Collection (Rockville, Md.) and mantle cell lymphoma (Granta-4, -22 and -519) were maintained in RPMI 1640 medium (Mediatech, Va.) supplemented with 10% fetal bovine serum, 2 mM sodium pyruvate and 100 units/ml penicillin/streptomycin at 37° C. in a humidified atmosphere of 5% CO2.

SMILES: Cc1ccc2nc(CN(CCN(Cc3nc4ccc(C)cc4[nH]3)Cc3nc4ccc(C)cc4[nH]3)Cc3nc4ccc(C)cc4[nH]3)[nH]c2c1 [NSC348884, N,N,N′,N′-tetrakis[(5-methyl-2-benzimidazolyl)methyl]-1,2-ethanediamine]
- 14-3-3 dimer formation (14-3-3 dimer): no effect
- p53 by immunocytochemistry staining (p53 [1]): higher p53 proteins were induced
- apoptosis by Annexin V binding [2]: induced apoptosis
- NPM oligomer formation (NPM oligomer): disrupted
- apoptosis by morphology, dose dependence (LNCaP cells; 0-5 μM): dose-dependent increase in apoptosis
- apoptosis by morphology (LNCaP cells; 4 and 5 μM): > 50%
- p21 protein level (p53 [3]; HCT116, 5 μM, 24 h): up-regulated
- p53 protein level and phosphorylation on Ser15 (p53 [3]; LNCaP, after 2 h of incubation): increased
- p53 level (p53 [3]; breast cancer cell line MCF7): enhanced p53
- IC50 (LNCaP prostate cell line): ~4 µM
- survival [4]: 53 days
- survival advantage ([4]; versus control): statistically significant survival advantage
- IC50 [5]: 1.7 to 4 µM
- PARP-cleavage and H2AX phosphorylation on Ser139 (LNCaP): correlated well with PARP-cleavage and induction H2AX phosphorylation
- IC50 ([6]; 4 days): ~1.7 µM
- effect on cell viability ([6]; NSC348884 at 1 μM alone, 4 days, MTT): no effect

SMILES: COc1cccc2c1C(=O)c1c(O)c3c(c(O)c1C2=O)C[C@@](O)(C(=O)CO)C[C@@H]3O[C@H]1C[C@H](N)[C@H](O)[C@H](C)O1 [doxorubicin, reference compound]
- survival [4]: 41 days
- IC50 ([6]; 4 days): 0.01 to 0.02 µM
- effect on cell viability ([6]; doxorubicin at 0.1 nM alone): no effect
